Test system: HaCaT cells
Assay: Concentrations of inflammatory mediators produced by HaCaT cells stimulated with TNFα and IFNγ in presence/absence of JAK inhibitors (ProCarta)
Assay type: cell-based, human
Experimental: After 48 hours, cell culture media was removed from 24 well plates and replaced with 250 uL of media containing serial diluted drug, then incubated for 15 minutes at 37° C./5% CO2. […] The final concentration of Recombinant Human Interferon gamma and Recombinant Human Tumor Necrosis Factor alpha was 25 ng/mL of each cytokine. Cytokine stimulation added to wells containing drug brought the final concentrations for each drug treatment to 25 nM, 50 nM, 100 nM, and 200 nM. Treated plates were mixed by gentle agitation for 30 seconds then incubated for 24 hours at 37° C./5% CO2. At the end of the 24 hour incubation media was immediately removed from each plate.
Media was incubated with antibody conjugated beads designed to bind to the epitopes of specific target proteins and identify the bound protein through the bead's distinctive spectral pattern. Biotinylated detection antibodies, designed to bind to different epitopes of the same target proteins, and Streptavidin-PE are added to assay plates to quantify the amount of the target proteins. Assay plates were read on the Luminex 200 and data were expressed as Net Median Fluorescence Intensity. […] The concentration of each protein was extrapolated from the antigen standard curve and concentrations were expressed as pg/mL (Table 15).

[1] = TNFα 25 ng/mL + IFNγ 25 ng/mL, drug 25 nM
[2] = TNFα 25 ng/mL + IFNγ 25 ng/mL, drug 50 nM
[3] = TNFα 25 ng/mL + IFNγ 25 ng/mL, drug 100 nM
[4] = TNFα 25 ng/mL + IFNγ 25 ng/mL, drug 200 nM

Cc1n[nH]c(C)c1-c1cnn(C2(CC#N)CN(c3cc(F)c(C(=O)N[C@@H](C)C(F)(F)F)cc3F)C2)c1 [Cpc C]
BDNF concentration [1]: 4.01 ± 0.19 pg/mL | EGF concentration [1]: 1.54 ± 0.13 pg/mL | Eotaxin concentration [1]: 10.08 ± 0.15 pg/mL | FGF-2 concentration [1]: 21.41 ± 1.39 pg/mL | GM-CSF concentration [1]: 130 ± 3.15 pg/mL | GRO alpha concentration [1]: 548.93 ± 27.91 pg/mL | HGF concentration [1]: 13.66 ± 0.51 pg/mL | IFN alpha concentration [1]: 0.25 ± 0.01 pg/mL | bNGF concentration [1]: 7.86 ± 0.56 pg/mL | BDNF concentration [2]: 4 ± 0.23 pg/mL | EGF concentration [2]: 1.14 ± 0.17 pg/mL | Eotaxin concentration [2]: 9.84 ± 0.25 pg/mL | FGF-2 concentration [2]: 20.77 ± 1.37 pg/mL | GM-CSF concentration [2]: 126.18 ± 3.4 pg/mL | GRO alpha concentration [2]: 544.74 ± 37.71 pg/mL | HGF concentration [2]: 13.04 ± 0.28 pg/mL | IFN alpha concentration [2]: 0.26 ± 0 pg/mL | bNGF concentration [2]: 6.86 ± 0.6 pg/mL | BDNF concentration [3]: 4.24 ± 0.26 pg/mL | EGF concentration [3]: 1.35 ± 0.18 pg/mL | Eotaxin concentration [3]: 9.89 ± 0.22 pg/mL | FGF-2 concentration [3]: 20.84 ± 1.31 pg/mL | GM-CSF concentration [3]: 134.94 ± 4.45 pg/mL | GRO alpha concentration [3]: 575.98 ± 43.22 pg/mL | HGF concentration [3]: 13.53 ± 0.5 pg/mL | IFN alpha concentration [3]: 0.26 ± 0 pg/mL | bNGF concentration [3]: 6.93 ± 1.04 pg/mL | BDNF concentration [4]: 3.97 ± 0.22 pg/mL | EGF concentration [4]: 1.46 ± 0.17 pg/mL | Eotaxin concentration [4]: 9.89 ± 0.21 pg/mL | FGF-2 concentration [4]: 20.93 ± 1.37 pg/mL | GM-CSF concentration [4]: 132.6 ± 3.95 pg/mL | GRO alpha concentration [4]: 560.99 ± 43.32 pg/mL | HGF concentration [4]: 13.6 ± 0.53 pg/mL | IFN alpha concentration [4]: 0.26 ± 0 pg/mL | bNGF concentration [4]: 5.7 ± 0.76 pg/mL | BDNF concentration (no stimulation, drug 200 nM): 5.7 ± 0.31 pg/mL | EGF concentration (no stimulation, drug 200 nM): 1.12 ± 0.14 pg/mL | Eotaxin concentration (no stimulation, drug 200 nM): 2.28 ± 0.07 pg/mL | FGF-2 concentration (no stimulation, drug 200 nM): 8.77 ± 0.79 pg/mL | GM-CSF concentration (no stimulation, drug 200 nM): 9.48 ± 1.48 pg/mL | GRO alpha concentration (no stimulation, drug 200 nM): 236.87 ± 11.04 pg/mL | HGF concentration (no stimulation, drug 200 nM): 4.74 ± 0.47 pg/mL | IFN alpha concentration (no stimulation, drug 200 nM): 0.2 ± 0.03 pg/mL | IFN gamma concentration (no stimulation, drug 200 nM): 3.81 ± 0.74 pg/mL | bNGF concentration (no stimulation, drug 200 nM): 3.73 ± 0.63 pg/mL

CC(O)c1nc2cnc3ccsc3c2n1C1CCC(CC#N)OC1 (centres unmarked) [Cpc D]
BDNF concentration [1]: 4.08 ± 0.26 pg/mL | EGF concentration [1]: 1.49 ± 0.14 pg/mL | Eotaxin concentration [1]: 9.82 ± 0.2 pg/mL | FGF-2 concentration [1]: 22.89 ± 1.39 pg/mL | GM-CSF concentration [1]: 126.24 ± 3.53 pg/mL | GRO alpha concentration [1]: 539.42 ± 38.03 pg/mL | HGF concentration [1]: 13.47 ± 0.45 pg/mL | IFN alpha concentration [1]: 0.26 ± 0.01 pg/mL | bNGF concentration [1]: 7.44 ± 0.63 pg/mL | BDNF concentration [2]: 3.97 ± 0.25 pg/mL | EGF concentration [2]: 1.31 ± 0.19 pg/mL | Eotaxin concentration [2]: 9.58 ± 0.21 pg/mL | FGF-2 concentration [2]: 20.96 ± 1.43 pg/mL | GM-CSF concentration [2]: 124.89 ± 3.37 pg/mL | GRO alpha concentration [2]: 555.54 ± 44.74 pg/mL | HGF concentration [2]: 13.27 ± 0.45 pg/mL | IFN alpha concentration [2]: 0.26 ± 0 pg/mL | bNGF concentration [2]: 6.17 ± 0.74 pg/mL | BDNF concentration [3]: 4.18 ± 0.28 pg/mL | EGF concentration [3]: 1.23 ± 0.16 pg/mL | Eotaxin concentration [3]: 10.02 ± 0.19 pg/mL | FGF-2 concentration [3]: 21.77 ± 1.51 pg/mL | GM-CSF concentration [3]: 133.19 ± 3.97 pg/mL | GRO alpha concentration [3]: 578.28 ± 48.32 pg/mL | HGF concentration [3]: 13.75 ± 0.4 pg/mL | IFN alpha concentration [3]: 0.26 ± 0 pg/mL | bNGF concentration [3]: 7.12 ± 0.8 pg/mL | BDNF concentration [4]: 4.03 ± 0.28 pg/mL | EGF concentration [4]: 1.45 ± 0.17 pg/mL | Eotaxin concentration [4]: 9.85 ± 0.17 pg/mL | FGF-2 concentration [4]: 20.96 ± 1.34 pg/mL | GM-CSF concentration [4]: 130.42 ± 3.44 pg/mL | GRO alpha concentration [4]: 564.53 ± 52.35 pg/mL | HGF concentration [4]: 13.8 ± 0.48 pg/mL | IFN alpha concentration [4]: 0.25 ± 0.02 pg/mL | bNGF concentration [4]: 6.73 ± 0.61 pg/mL | BDNF concentration (no stimulation, drug 200 nM): 5.66 ± 0.38 pg/mL | EGF concentration (no stimulation, drug 200 nM): 1.24 ± 0.09 pg/mL | Eotaxin concentration (no stimulation, drug 200 nM): 2.08 ± 0.07 pg/mL | FGF-2 concentration (no stimulation, drug 200 nM): 8.19 ± 1.07 pg/mL | GM-CSF concentration (no stimulation, drug 200 nM): 8.49 ± 1.84 pg/mL | GRO alpha concentration (no stimulation, drug 200 nM): 234.42 ± 14.21 pg/mL | HGF concentration (no stimulation, drug 200 nM): 3.68 ± 0.39 pg/mL | IFN alpha concentration (no stimulation, drug 200 nM): 0.22 ± 0.03 pg/mL | IFN gamma concentration (no stimulation, drug 200 nM): 4.52 ± 0.68 pg/mL | bNGF concentration (no stimulation, drug 200 nM): 3.47 ± 0.48 pg/mL

From patent publication US12498382B2, “Biomarkers for vitiligo” (INCYTE CORPORATION, priority 2019, dated 2025)
